34 compounds from patent US8198456B2, “Dihydropyridine derivatives as useful as protein kinase inhibitors” (Bayer Intellectual Property GmbH, priority 2006, dated 2012) can be followed below.

Counter-ions that a name gives are not always drawn.

For this experiment, the target named is T1, recombinant human c-MET kinase enzyme domain (Homo sapiens, UniProt P08581).
T1 construct: Recombinant c-Met kinase domain (amino acids 960-1390); His (N); made in house; host or cells: baculovirus expression system (insect cells; SF21 is named only for the alternative format)
T1 sequence (P08581 960-1390): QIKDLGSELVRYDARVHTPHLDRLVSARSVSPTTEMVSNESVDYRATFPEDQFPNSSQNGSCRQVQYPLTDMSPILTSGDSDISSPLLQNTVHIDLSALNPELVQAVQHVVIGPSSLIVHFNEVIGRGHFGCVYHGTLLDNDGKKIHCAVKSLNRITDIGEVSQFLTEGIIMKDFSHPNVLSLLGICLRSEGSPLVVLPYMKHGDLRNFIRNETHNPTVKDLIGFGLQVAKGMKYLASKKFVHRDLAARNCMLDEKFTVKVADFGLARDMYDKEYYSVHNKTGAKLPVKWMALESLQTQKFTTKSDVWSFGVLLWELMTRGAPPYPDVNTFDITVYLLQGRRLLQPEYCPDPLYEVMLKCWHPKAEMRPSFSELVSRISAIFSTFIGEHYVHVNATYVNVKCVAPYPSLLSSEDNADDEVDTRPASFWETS
As to the kind of experiment: c-MET receptor tyrosine kinase Homogeneous Time Resolved Fluorescence assay (HTRF). The experiment is classed as biochemical. As to conditions: Biological Example 1 and/or Biological Example 2. The gist of the method:
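His-tagged c-Met kinase domain (aa 960-1390, baculovirus) phosphorylated biotinylated poly-Glu-Tyr (37 nM) with 20 μM ATP in HEPES pH 7.4, Mg/Mn, DTT, 1% DMSO, 20 min at ambient temperature, EDTA-stopped. HTRF read (PT66-Eu/streptavidin-XL665, 665/620 nm ratio) after 4 h; IC50 from eight 1:3.16 dilutions.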
Consider `CC1=C(C#N)C(c2ccc3[nH]nc(NCc4ccc(N)cc4)c3c2)C(C#N)=C(C)N1` [compound 128, 4-[3-[[(4-aminophenyl)methyl]amino]-1H-indazol-5-yl]-1,4-dihydro-2,6-dimethyl-3,5-pyridinedicarbonitrile], for which the IC50 (usually the concentration at which inhibition is half-maximal) is less than 100 nM.
Then `CC1=C(C#N)C(c2ccc3[nH]nc(N4CCNCC4)c3c2)C(C#N)=C(C)N1` [compound 164, 1,4-dihydro-2,6-dimethyl-4-[3-(1-piperazinyl)-1H-indazol-5-yl]-3,5-pyridinedicarbonitrile], with less than 100 nM; and `CC1=C(C#N)C(c2ccc3[nH]nc(CN4CCOCC4)c3c2)C(C#N)=C(C)N1` [compound 83, 1,4-dihydro-2,6-dimethyl-4-[3-(4-morpholinylmethyl)-1H-indazol-5-yl]-3,5-pyridinedicarbonitrile], with 500 to 2500 nM.
Then `CC1=C(C#N)C(c2cccc(C(=O)Nc3ccc(N(C)C)cn3)c2)C(C#N)=C(C)N1` [compound 63, 3-(3,5-dicyano-1,4-dihydro-2,6-dimethyl-4-pyridinyl)-N-[5-(dimethylamino)-2-pyridinyl]-benzamide], with 100 to 500 nM.
Consider `CNC(=O)c1n[nH]c2ccc(C3C(C#N)=C(C)NC(C)=C3C#N)cc12` [99.1, 5-(3,5-dicyano-1,4-dihydro-2,6-dimethyl-4-pyridinyl)-N-methyl-1H-indazole-3-carboxamide, TFA salt], for which the IC50 was less than 100 nM.
Then `CC1=C(C#N)C(c2ccc3[nH]ncc3c2)C(C#N)=C(C2CCCN(C(=O)OCc3ccccc3)C2)N1` (stereo not shown) [compound 251, 3-[3,5-dicyano-1,4-dihydro-4-(1H-indazol-5-yl)-6-methyl-2-pyridinyl]-1-piperidinecarboxylic acid phenylmethyl ester], with 500 to 2500 nM; and `CCCN1CCN(c2n[nH]c3ccc(C4C(C#N)=C(C)NC(C)=C4C#N)cc23)CC1` [165.1, 2,6-dimethyl-4-[3-(4-propyl-piperazin-1-yl)-1H-indazol-5-yl]-1,4-dihydropyridine-3,5-dicarbonitrile, TFA salt], with less than 100 nM.
Take `CC1=C(C#N)C(c2ccc3[nH]nc(Cl)c3c2)C(C#N)=C(C)N1C` [compound 298, 4-(3-chloro-1H-indazol-5-yl)-1,4-dihydro-1,2,6-trimethyl-3,5-pyridinedicarbonitrile]: the IC50 was less than 100 nM.
Then `COC(c1cccnc1)n1nc(N)c2cc(C3C(C#N)=C(C)NC(C)=C3C#N)ccc21` (stereo not shown) [compound 110, 4-[3-amino-1-(methoxy-3-pyridinylmethyl)-1H-indazol-5-yl]-1,4-dihydro-2,6-dimethyl-3,5-pyridinedicarbonitrile], with 100 to 500 nM; and `CC1=C(C#N)C(c2cccc(NC(=O)c3cccnc3)c2)C(C#N)=C(C)N1` [compound 38, N-[3-(3,5-dicyano-1,4-dihydro-2,6-dimethyl-4-pyridinyl)phenyl]-3-pyridinecarboxamide], with 500 to 2500 nM; and `CC(=O)Nc1cccc(C2=C(C#N)C(c3ccc4[nH]ncc4c3)C(C#N)=C(C)N2)c1` (stereo not shown) [compound 253, N-[3-[3,5-dicyano-1,4-dihydro-4-(1H-indazol-5-yl)-6-methyl-2-pyridinyl]-phenyl]-acetamide], with less than 100 nM.
Then `CC1=C(C#N)C(c2ccc3[nH]nc(Cl)c3c2)C(C#N)=C(C)N1CCO` [compound 297, 4-(3-chloro-1H-indazol-5-yl)-1,4-dihydro-1-(2-hydroxyethyl)-2,6-dimethyl-3,5-pyridinedicarbonitrile], with less than 100 nM; and `CCN1C(C)=C(C#N)C(c2ccc3[nH]nc(N)c3c2)C(C#N)=C1C` [compound 294, 1-ethyl-4-(3-amino-1H-indazol-5-yl)-1,4-dihydro-2,6-dimethyl-3,5-pyridinedicarbonitrile], with less than 100 nM.
Consider `CC1=C(C#N)C(c2ccc3[nH]nc(Cl)c3c2)C(C#N)=C(C)N1` [compound 148, 4-(3-chloro-1H-indazol-5-yl)-1,4-dihydro-2,6-dimethyl-3,5-pyridinedicarbonitrile], for which the IC50 is less than 100 nM.
Regarding `CC1=C(C#N)C(c2ccc3[nH]nc(-c4cnn(C)c4)c3c2)C(C#N)=C(C)N1` [compound 174, 1,4-dihydro-2,6-dimethyl-4-[3-(1-methyl-1H-pyrazol-4-yl)-1H-indazol-5-yl]-3,5-pyridinedicarbonitrile], the IC50 was less than 100 nM.
As for `CC1=C(C#N)C(c2ccc3[nH]ncc3c2)C(C#N)=C(c2cccnc2)N1` (stereo not shown) [compound 266, 1,4-dihydro-4-(1H-indazol-5-yl)-6-methyl-[2,3′-bipyridine]-3,5-dicarbonitrile], the IC50 is less than 100 nM.
Then `CC1=C(C#N)C(c2cccc(C(=O)Nc3ccc(CN(C)C)cn3)c2)C(C#N)=C(C)N1` [compound 76, 3-(3,5-dicyano-1,4-dihydro-2,6-dimethyl-4-pyridinyl)-N-[5-[(dimethylamino)methyl]-2-pyridinyl]-benzamide], with 100 to 500 nM; and `CC1=C(C#N)C(c2cccc(NC(=O)c3cnc[nH]3)c2)C(C#N)=C(C)N1` [compound 66, N-[3-(3,5-dicyano-1,4-dihydro-2,6-dimethyl-4-pyridinyl)phenyl]-1H-imidazole-5-carboxamide], with 100 to 500 nM.
Then `CC1=C(C#N)C(c2ccc3[nH]nc(C(=O)NCCC4CCCN4C)c3c2)C(C#N)=C(C)N1` (stereo not shown) [compound 125, 5-(3,5-dicyano-1,4-dihydro-2,6-dimethyl-4-pyridinyl)-N-[2-(1-methyl-2-pyrrolidinyl)ethyl]-1H-indazole-3-carboxamide], with less than 100 nM.
Then `CCC1=C(C#N)C(c2ccc3[nH]ncc3c2)C(C#N)=C(CC)N1` [compound 269, 2,6-diethyl-1,4-dihydro-4-(1H-indazol-5-yl)-3,5-pyridinedicarbonitrile], with less than 100 nM; and `CC1=C(C#N)C(c2cccc(C(=O)Nc3cccnc3)n2)C(C#N)=C(C)N1` [compound 190, 3′,5′-dicyano-1′,4′-dihydro-2′,6′-dimethyl-N-3-pyridinyl-[2,4′-bipyridine]-6-carboxamide], with 100 to 500 nM.
With `CC1=C(C#N)C(c2ccc3[nH]nc(NCc4ccc(C(=O)N5CCC(O)C5)cc4)c3c2)C(C#N)=C(C)N1` (stereo not shown) [compound 168, 1,4-dihydro-4-[3-[[[4-[(3-hydroxy-1-pyrrolidinyl)carbonyl]phenyl]methyl]amino]-1H-indazol-5-yl]-2,6-dimethyl-3,5-pyridinedicarbonitrile], the IC50 was less than 100 nM.
Then `CC1=C(C#N)C(c2ccc3[nH]nc(I)c3c2)C(C#N)=C(C)N1` [compound 93, 1,4-dihydro-4-(3-iodo-1H-indazol-5-yl)-2,6-dimethyl-3,5-pyridinedicarbonitrile], with less than 100 nM.
As to `CC1=C(C#N)C(c2ccc3[nH]nc(NCCN4CCOCC4)c3c2)C(C#N)=C(C)N1` [compound 307, 1,4-dihydro-2,6-dimethyl-4-[3-[[2-(4-morpholinyl)ethyl]amino]-1H-indazol-5-yl]-3,5-pyridinedicarbonitrile], the IC50 is less than 100 nM.
`CC1=C(C#N)C(c2ccc3[nH]nc(/C=N/O)c3c2)C(C#N)=C(C)N1` [compound 149, 1,4-dihydro-4-[3-[(E)-(hydroxyimino)methyl]-1H-indazol-5-yl]-2,6-dimethyl-3,5-pyridinedicarbonitrile]: the IC50 is less than 100 nM.
Then `CC1=C(C#N)C(c2ccc3[nH]ncc3c2)C(C#N)=C(c2ccnc(NCCN3CCOCC3)c2)N1` (stereo not shown) [compound 278, 1,4-dihydro-4-(1H-indazol-5-yl)-6-methyl-2′-[[2-(4-morpholinyl)ethyl]amino]-[2,4′-bipyridine]-3,5-dicarbonitrile], with less than 100 nM; and `CC1=C(C#N)C(c2cccc(NC(=O)c3ccccn3)c2)C(C#N)=C(C)N1` [compound 58, N-[3-(3,5-dicyano-1,4-dihydro-2,6-dimethyl-4-pyridinyl)phenyl]-2-pyridinecarboxamide], with 100 to 500 nM; and `CC(=O)c1n[nH]c2ccc(C3C(C#N)=C(C)NC(C)=C3C#N)cc12` [compound 158, 4-(3-acetyl-1H-indazol-5-yl)-1,4-dihydro-2,6-dimethyl-3,5-pyridinedicarbonitrile], with less than 100 nM.
Consider `CC1=C(C#N)C(c2ccc3[nH]ncc3c2)C(C#N)=C(c2ccc(C(=O)NCCN3CCOCC3)cc2)N1` (stereo not shown) [compound 261, 4-[3,5-dicyano-1,4-dihydro-4-(1H-indazol-5-yl)-6-methyl-2-pyridinyl]-N-[2-(4-morpholinyl)ethyl]-benzamide], for which the IC50 is less than 100 nM.
Then `CC1=C(C#N)C(c2ccc3[nH]nc(O)c3c2)C(C#N)=C(C)N1` [compound 176, 1,4-dihydro-4-(3-hydroxy-1H-indazol-5-yl)-2,6-dimethyl-3,5-pyridinedicarbonitrile], with 500 to 2500 nM; and `CC1=C(C#N)C(c2ccc3[nH]nc(NCc4ccc(N5CCOCC5)cc4)c3c2)C(C#N)=C(C)N1` [compound 163, 1,4-dihydro-2,6-dimethyl-4-[3-[[[4-(4-morpholinyl)phenyl]methyl]amino]-1H-indazol-5-yl]-3,5-pyridinedicarbonitrile], with less than 100 nM.
Then `COC(=O)c1n[nH]c2ccc(C3C(C#N)=C(C)NC(C)=C3C#N)cc12` [compound 85, 5-(3,5-dicyano-1,4-dihydro-2,6-dimethyl-4-pyridinyl)-1H-indazole-3-carboxylic acid methyl ester], with 500 to 2500 nM; and `COC(=O)c1cccc(C2C(C#N)=C(C)NC(C)=C2C#N)c1` [compound 10, 3-(3,5-dicyano-1,4-dihydro-2,6-dimethyl-4-pyridinyl)-benzoic acid, methyl ester], with 100 to 500 nM.
Then `CC1=C(C#N)C(c2ccc3[nH]nc(-c4ccc(N5CCN(C(=O)OC(C)(C)C)CC5)cc4)c3c2)C(C#N)=C(C)N1` [compound 155, 4-[4-[5-(3,5-dicyano-1,4-dihydro-2,6-dimethyl-4-pyridinyl)-1H-indazol-3-yl]-phenyl]-1-piperazinecarboxylic acid 1,1-dimethylethyl ester], with less than 100 nM.
